Data as given in patent publication EP2711009A1, “Compounds for use in treating or preventing primary and metastatic breast and prostate cancer” (Institut Univ. de Ciència i Tecnologia, S.A., priority 2012, dated 2014).
Where two headings read alike, the source gives them in different places.

Assays:
Format in all cases: cell-based
[1] = tested on: PC3M prostate cancer cells; assay: WST-1 tetrazolium dye proliferation assay, PC3M; conditions: for inhibition at 1 µM: Homo sapiens, PC-3M, 120 h, read-out: proliferation inhibitory effect compared with 0.1% DMSO vehicle control group; for proliferation inhibitory effect compared with Gemcitabine: relative to Gemcitabine (= 0)
Experimental: (§1) Determination of the ability of compound of formula (I) and combinations between compound of formula (I) and certain therapeutic compounds described herein to inhibit the proliferation of target cells was assayed in vitro against breast and prostate tumour cells.
(§2) MCF-7 and LNCaP cells were purchased from ATCC. MDA-MB-231(SA) cells were obtained from Professor Theresa Guise. PNT1A cells were purchased from ECACC. The cells were grown in a subconfluent condition to maintain a logarithmic growth phase. The cells were dislodged for passage using trypsin-EDTA.
(§3) The proliferation of the cell lines was evaluated by using the commercial WST-1 proliferation measurement reagent. Cells from exponentially growing cultures were plated on the 96 well plates at the appropriate seeding density in the optimal medium to give logarithmic growth over the course of the assay. The plates with MCF-7, MDA-MB-231(SA), PC3M and PNT1A cells were incubated 24h at 37°C in a humidified CO2 atmosphere to allow for recovery from trypsinization before adding of test and control compounds. 1mM stock solutions were prepared from test compounds in DMSO (dimethylsulfoxide) and stored at -20°C. Control compounds Ara-C and Gemcitabine stock solutions were prepared in sterile water. Each test and control compound was diluted twice the final concentration in appropriate media. Half of the final well volume of each dilution was added in six parallels to plates containing cells. Required volume of DMSO was added into the vehicle and control compound dilutions to achieve the final concentration of 0.1% DMSO in all control and test compound wells. The plates were returned to 37°C in a humified CO2 atmosphere and incubated for 5 days. WST-1 reagent (2-(4-Iodophenyl)-3-(4-nitrophenyl)-5-(2,4-disulfophenyl)-2H-tetrazolium) was added to each well according manufacturer's instructions and the plates were returned to 37°C in a humidified CO2 atmosphere for 2 hours. Following incubation the absorbance at a wavelength of 450nm was measured from each well using a multilabel counter. The absorbance at wavelength 450nm correlates linearly to number of viable cells in the well.
(§4) The means and standard deviations for parallel samples were calculated and plotted as a graph.

[2] = tested on: PNT1A immortalized normal prostate cells; assay: WST-1 tetrazolium dye proliferation assay, PNT1A normal cells; conditions: Homo sapiens, 120 h, read-out: proliferation inhibitory effect compared with 0.1% DMSO vehicle control group
Experimental: as §1, §2, §3, §4

[3] = tested on: MDA-MB-231(SA) breast cancer cells; assay: WST-1 tetrazolium dye proliferation assay, MDA-MB-231(SA); conditions: for inhibition at 1 µM: Homo sapiens, read-out: proliferation inhibitory effect compared with 0.1% DMSO vehicle control group; for proliferation inhibitory effect compared with Gemcitabine: relative to Gemcitabine (= 0), negative = less inhibition than Gemcitabine
Experimental: as §1, §2, §3, §4

pancreatic cancer cells = assay: Effect on pancreatic cancer cells (no method given); conditions: other type of cancer cells such as pancreatic cancer cells
[4] = PNT1A immortalized normal prostate cell line, 5 days incubation, mean±SD, concentration not given (primary screen 1 microM)

Nc1ccn([C@@H]2O[C@H](CO)[C@@H](O)C2(F)F)c(=O)n1 [Gemcitabine, 2',2'-difluorodeoxycytidine]
inhibition at 1 µM [1]: 67.5 ± 7.2% | proliferation inhibitory effect compared with Gemcitabine ([1]; PC3M): 0% | inhibition at 1 µM [2, 4]: 98.8 ± 0.3% | inhibition at 1 µM ([3]; MDA-MB-231, 120 h): 93.3 ± 0.9% | proliferation inhibitory effect compared with Gemcitabine ([3]; MDA-MB-231(SA)): 0%

Nc1ncnc2[nH]ncc12 [Compound A, 4-Aminopyrazolo[3,4-d]pyrimidine]
proliferation inhibitory effect compared with Gemcitabine ([1]; PC3M): 70.1±2.7%

CCSc1ncnc2c1ncn2[C@@H]1O[C@H](CO)[C@@H](O)[C@H]1O [Compound I, 6-(Ethylthio)inosine]
inhibition at 1 µM [1]: 73.6 ± 5.5% | proliferation inhibitory effect compared with Gemcitabine ([1]; PC3M): 26.6±15.4% | inhibition at 1 µM ([2]; PNT1A): 26.2 ± 7.7% | inhibition at 1 µM ([3]; MDA-MB-231, 120 h): 93.4 ± 1.3% | proliferation inhibitory effect compared with Gemcitabine ([3]; MDA-MB-231(SA)): 11.7±18.0% | effect on pancreatic cancer cells (pancreatic cancer cells): no effect was detected

Nc1ccn([C@@H]2O[C@H](CO)[C@@H](O)[C@@H]2O)c(=O)n1 [Ara-C]
inhibition at 1 µM [1]: 72.6 ± 3.5% | inhibition at 1 µM [2, 4]: 66.5 ± 1.8% | inhibition at 1 µM ([3]; MDA-MB-231, 120 h): 80.4 ± 2.5%

O=c1[nH]c(=O)n([C@H]2C[C@H](O)[C@@H](CO)O2)cc1F [Floxuridine]
inhibition at 1 µM ([1]; PC3M, 5 days incubation, mean±SD, concentration not given (primary screen 1 microM)): 78 ± 3.4% | proliferation inhibitory effect compared with Gemcitabine ([1]; PC3M): 38.9±9.5% | inhibition at 1 µM [2, 4]: 88.3 ± 0.6% | inhibition at 1 µM ([3]; 120 h, MDA-MB-231(SA), 5 days incubation, mean±SD, concentration not given (primary screen 1 microM)): 82.4 ± 2.6% | proliferation inhibitory effect compared with Gemcitabine ([3]; MDA-MB-231(SA)): -136.4±34.6%
